Experiments:
Type in all cases: in vivo
[1] = system: barnyardgrass (Echinochloa crus-galli); assay: Test A preemergence, barnyardgrass; conditions: 0 to 100 scale
How it was run: (§1)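 Greenhouse test; plants at one- to two-leaf stage (2–10 cm) sprayed postemergence with compound in non-phytotoxic solvent/surfactant mix, or soil sprayed preemergence after seeding in loam–sand blend. Injury rated visually versus untreated controls after about 10 d, 0 (no effect) to 100 (complete control).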

[2] = system: kochia (Kochia scoparia); assay: Test A preemergence, kochia; conditions: 0 to 100 scale
How it was run: as §1

[3] = system: ragweed (common ragweed, Ambrosia elatior); assay: Test A preemergence, ragweed; conditions: 0 to 100 scale
How it was run: as §1

[4] = system: ryegrass, Italian (Lolium multiflorum); assay: Test A preemergence, Italian ryegrass; conditions: 0 to 100 scale
How it was run: as §1

[5] = system: foxtail, giant (Setaria faberii); assay: Test A preemergence, giant foxtail; conditions: 0 to 100 scale
How it was run: as §1

[6] = system: pigweed (Amaranthus retroflexus); assay: Test A preemergence, pigweed; conditions: 0 to 100 scale
How it was run: as §1

[7] = system: barnyardgrass (Echinochloa crus-galli); assay: Test A postemergence, barnyardgrass; conditions: 0 to 100 scale
How it was run: as §1

[8] = system: kochia (Kochia scoparia); assay: Test A postemergence, kochia; conditions: 0 to 100 scale
How it was run: as §1

[9] = system: ragweed (common ragweed, Ambrosia elatior); assay: Test A postemergence, ragweed; conditions: 0 to 100 scale
How it was run: as §1

[10] = system: ryegrass, Italian (Lolium multiflorum); assay: Test A postemergence, Italian ryegrass; conditions: 0 to 100 scale
How it was run: as §1

[11] = system: foxtail, giant (Setaria faberii); assay: Test A postemergence, giant foxtail; conditions: 0 to 100 scale
How it was run: as §1

[12] = system: pigweed (Amaranthus retroflexus); assay: Test A postemergence, pigweed; conditions: 0 to 100 scale
How it was run: as §1

[13] = system: wheat (Triticum aestivum); assay: Test A postemergence, wheat; conditions: 0 to 100 scale
How it was run: as §1

[14] = system: corn (Zea mays); assay: Test A postemergence, corn; conditions: 0 to 100 scale
How it was run: as §1

[15] = system: blackgrass (Alopecurus myosuroides); assay: Test A postemergence, blackgrass; conditions: 0 to 100 scale
How it was run: as §1

[16] = system: galium (catchweed bedstraw, Galium aparine); assay: Test A postemergence, galium; conditions: 0 to 100 scale
How it was run: as §1

[17] = system: rice (Oryza sativa); assay: Test B flooded paddy test, rice; conditions: Flood, 250 g ai/ha, applied to paddy water, 2-leaf stage, visual evaluation after 13 to 15 d
How it was run: (§2)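 Each response is a visual 0–100 rating made against untreated controls, where 0 is no effect and 100 is complete control; a dash marks no result. Compound was dosed into 3 cm paddy water over 2-leaf plants, assessed after 13 to 15 d.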

[18] = system: sedge, umbrella (small-flower umbrella sedge, Cyperus difformis); assay: Test B flooded paddy test, umbrella sedge; conditions: Flood, 250 g ai/ha, applied to paddy water, 2-leaf stage, visual evaluation after 13 to 15 d
How it was run: as §2

[19] = system: ducksalad (Heteranthera limosa); assay: Test B flooded paddy test, ducksalad; conditions: Flood, 250 g ai/ha, applied to paddy water, 2-leaf stage, visual evaluation after 13 to 15 d
How it was run: as §2

[20] = system: barnyardgrass (Echinochloa crus-galli); assay: Test B flooded paddy test, barnyardgrass; conditions: Flood, 250 g ai/ha, applied to paddy water, 2-leaf stage, visual evaluation after 13 to 15 d
How it was run: as §2

`C[C@@H](Nc1ncc(C(F)(F)F)c(N)n1)c1cc2cc(Cl)ccc2o1` [Compound 2] was tested, and the “Plant response rating, Barnyardgrass” value ([1]; 125 g ai/ha) was 0, the “Plant response rating, Barnyardgrass” value ([1]; 500 g ai/ha) was 0 and the “Plant response rating, Kochia” value ([2]; 125 g ai/ha) was 0. For the same compound, the “Plant response rating, Kochia” value ([2]; 500 g ai/ha) was 0, the “Plant response rating, Ragweed” value ([3]; 125 g ai/ha) was 0 and the “Plant response rating, Ragweed” value ([3]; 500 g ai/ha) was 0. For the same compound, the “Plant response rating, Ryegrass, Italian” value ([4]; 125 g ai/ha) was 0, the “Plant response rating, Ryegrass, Italian” value ([4]; 500 g ai/ha) was 0 and the “Plant response rating, Foxtail, Giant” value ([5]; 125 g ai/ha) was 0. For the same compound, the “Plant response rating, Foxtail, Giant” value ([5]; 500 g ai/ha) was 0, the “Plant response rating, Pigweed” value ([6]; 125 g ai/ha) was 10 and the “Plant response rating, Pigweed” value ([6]; 500 g ai/ha) was 20. For the same compound, the “Plant response rating, Barnyardgrass” value ([7]; 125 g ai/ha) was 0, the “Plant response rating, Barnyardgrass” value ([7]; 500 g ai/ha) was 10 and the “Plant response rating, Kochia” value ([8]; 125 g ai/ha) was 0. The “Plant response rating, Kochia” value ([8]; 500 g ai/ha) was 0, the “Plant response rating, Ragweed” value ([9]; 125 g ai/ha) was 0 and the “Plant response rating, Ragweed” value ([9]; 500 g ai/ha) was 20. For the same compound, the “Plant response rating, Ryegrass, Italian” value ([10]; 125 g ai/ha) was 0, the “Plant response rating, Ryegrass, Italian” value ([10]; 500 g ai/ha) was 0 and the “Plant response rating, Foxtail, Giant” value ([11]; 125 g ai/ha) was 0. For the same compound, the “Plant response rating, Foxtail, Giant” value ([11]; 500 g ai/ha) was 0, the “Plant response rating, Pigweed” value ([12]; 125 g ai/ha) was 40 and the “Plant response rating, Pigweed” value ([12]; 500 g ai/ha) was 90. For the same compound, the “Plant response rating, Wheat” value ([13]; 125 g ai/ha) was 0, the “Plant response rating, Wheat” value ([13]; 500 g ai/ha) was 0 and the “Plant response rating, Corn” value ([14]; 125 g ai/ha) was 0. The “Plant response rating, Corn” value ([14]; 500 g ai/ha) was 0, the “Plant response rating, Blackgrass” value ([15]; 125 g ai/ha) was 0 and the “Plant response rating, Blackgrass” value ([15]; 500 g ai/ha) was 0. The “Plant response rating, Galium” value ([16]; 125 g ai/ha) was 0, the “Plant response rating, Galium” value ([16]; 500 g ai/ha) was 30 and the “Plant response rating, Rice (0 to 100 scale, 0 is no effect, 100 is complete control)” value [17] was 0. For the same compound, the “Plant response rating, Sedge, Umbrella (0 to 100 scale, 0 is no effect, 100 is complete control)” value [18] was 0, the “Plant response rating, Ducksalad (0 to 100 scale, 0 is no effect, 100 is complete control)” value [19] was 0 and the “Plant response rating, Barnyardgrass (0 to 100 scale, 0 is no effect, 100 is complete control)” value [20] was 0.
With `C[C@@H](Nc1ncc(C(F)(F)F)c(N)n1)c1cccc2ccccc12` [Compound 3] the “Plant response rating, Barnyardgrass” value ([1]; 125 g ai/ha) was 10, the “Plant response rating, Barnyardgrass” value ([1]; 500 g ai/ha) was 100 and the “Plant response rating, Kochia” value ([2]; 125 g ai/ha) was 30. For the same compound, the “Plant response rating, Kochia” value ([2]; 500 g ai/ha) was 100, the “Plant response rating, Ragweed” value ([3]; 125 g ai/ha) was 100 and the “Plant response rating, Ragweed” value ([3]; 500 g ai/ha) was 100. For the same compound, the “Plant response rating, Ryegrass, Italian” value ([4]; 125 g ai/ha) was 20, the “Plant response rating, Ryegrass, Italian” value ([4]; 500 g ai/ha) was 90 and the “Plant response rating, Foxtail, Giant” value ([5]; 125 g ai/ha) was 10. For the same compound, the “Plant response rating, Foxtail, Giant” value ([5]; 500 g ai/ha) was 90, the “Plant response rating, Pigweed” value ([6]; 125 g ai/ha) was 100 and the “Plant response rating, Pigweed” value ([6]; 500 g ai/ha) was 100. For the same compound, the “Plant response rating, Barnyardgrass” value ([7]; 125 g ai/ha) was 20, the “Plant response rating, Barnyardgrass” value ([7]; 500 g ai/ha) was 80 and the “Plant response rating, Kochia” value ([8]; 125 g ai/ha) was 30. For the same compound, the “Plant response rating, Kochia” value ([8]; 500 g ai/ha) was 90, the “Plant response rating, Ragweed” value ([9]; 125 g ai/ha) was 30 and the “Plant response rating, Ragweed” value ([9]; 500 g ai/ha) was 90. The “Plant response rating, Ryegrass, Italian” value ([10]; 125 g ai/ha) was 0, the “Plant response rating, Ryegrass, Italian” value ([10]; 500 g ai/ha) was 0 and the “Plant response rating, Foxtail, Giant” value ([11]; 125 g ai/ha) was 0. For the same compound, the “Plant response rating, Foxtail, Giant” value ([11]; 500 g ai/ha) was 40, the “Plant response rating, Pigweed” value ([12]; 125 g ai/ha) was 90 and the “Plant response rating, Pigweed” value ([12]; 500 g ai/ha) was 100. The “Plant response rating, Wheat” value ([13]; 125 g ai/ha) was 20, the “Plant response rating, Wheat” value ([13]; 500 g ai/ha) was 0 and the “Plant response rating, Corn” value ([14]; 125 g ai/ha) was 0. For the same compound, the “Plant response rating, Corn” value ([14]; 500 g ai/ha) was 10, the “Plant response rating, Blackgrass” value ([15]; 125 g ai/ha) was 0 and the “Plant response rating, Blackgrass” value ([15]; 500 g ai/ha) was 30. For the same compound, the “Plant response rating, Galium” value ([16]; 125 g ai/ha) was 30, the “Plant response rating, Galium” value ([16]; 500 g ai/ha) was 90 and the “Plant response rating, Rice (0 to 100 scale, 0 is no effect, 100 is complete control)” value [17] was 0. The “Plant response rating, Sedge, Umbrella (0 to 100 scale, 0 is no effect, 100 is complete control)” value [18] was 65, the “Plant response rating, Ducksalad (0 to 100 scale, 0 is no effect, 100 is complete control)” value [19] was 30 and the “Plant response rating, Barnyardgrass (0 to 100 scale, 0 is no effect, 100 is complete control)” value [20] was 0.
